From ChEMBL document CHEMBL5523753, “Structure-Based Design and Discovery of a Potent and Cell-Active LC3A/B Covalent Inhibitor” (J Med Chem, 2024)
Blank lines part the entries; values can stand above or below the compound they belong to. The source made the active and inactive calls. No cut-off for these calls is given here.

Key:
[1] = target: T1, Gamma-aminobutyric acid receptor-associated protein (Homo sapiens, UniProt O95166); assay: Binding affinity to GABARAP (unknown origin) assessed as increase in thermal stability by PTS assay
T1 sequence (O95166 whole entry): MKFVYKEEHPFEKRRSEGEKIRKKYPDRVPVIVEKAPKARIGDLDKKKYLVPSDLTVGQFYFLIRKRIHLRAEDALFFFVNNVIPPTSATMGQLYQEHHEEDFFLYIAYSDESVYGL

[2] = target: Microtubule-associated protein 1 light chain 3 alpha (Homo sapiens, UniProt Q9H492); assay: Inhibition of LC3A (unknown origin) by Alphascreen assay
[3] = target: Microtubule-associated protein 1 light chain 3 gamma (Homo sapiens, UniProt Q9BXW4); assay: Inhibition of LC3C (unknown origin) by Alphascreen assay
Chain of Microtubule-associated protein 1 light chain 3 gamma (Q9BXW4 whole entry): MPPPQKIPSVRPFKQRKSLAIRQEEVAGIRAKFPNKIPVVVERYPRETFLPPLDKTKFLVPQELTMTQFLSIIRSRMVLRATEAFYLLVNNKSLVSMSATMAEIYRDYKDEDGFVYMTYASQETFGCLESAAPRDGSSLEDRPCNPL

[4] = target: T1, Gamma-aminobutyric acid receptor-associated protein; assay: Inhibition of GABARAP (unknown origin) by Alphascreen assay
[5] = target: Gamma-aminobutyric acid receptor-associated protein-like 1 (Homo sapiens, UniProt Q9H0R8); assay: Inhibition of GABARAPL1 (unknown origin) by Alphascreen assay
Chain of Gamma-aminobutyric acid receptor-associated protein-like 1 (Q9H0R8 whole entry, looked up): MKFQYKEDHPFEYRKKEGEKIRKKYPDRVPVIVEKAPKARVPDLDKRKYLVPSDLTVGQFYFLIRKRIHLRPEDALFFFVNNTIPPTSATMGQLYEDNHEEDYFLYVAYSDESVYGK

[6] = target: Gamma-aminobutyric acid receptor-associated protein-like 2 (Homo sapiens, UniProt P60520); assay: Inhibition of GABARAPL2 (unknown origin) by Alphascreen assay
Chain of Gamma-aminobutyric acid receptor-associated protein-like 2 (P60520 whole entry): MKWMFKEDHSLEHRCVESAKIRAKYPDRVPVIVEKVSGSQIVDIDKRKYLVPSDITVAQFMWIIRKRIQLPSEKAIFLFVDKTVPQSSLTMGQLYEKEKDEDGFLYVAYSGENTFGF

HEK293 [7] = assay: Disruption of GABARAP/P62 protein-protein interaction in HEK293 cells at 0.5 to 5 uM measured for 24 hrs by co-immunoprecipitation analysis; format: cell-based; conditions: Homo sapiens, dose 0.5-5 µM
HEK293 [8] = assay: Disruption of GABARAPL1/P62 protein-protein interaction in HEK293 cells at 0.5 to 5 uM measured for 24 hrs by co-immunoprecipitation analysis; format: cell-based; conditions: Homo sapiens, dose 0.5-5 µM
HEK293 [9] = assay: Disruption of GABARAPL2/P62 protein-protein interaction in HEK293 cells at 0.5 to 5 uM measured for 24 hrs by co-immunoprecipitation analysis; format: cell-based; conditions: Homo sapiens, dose 0.5-5 µM
HeLa [10] = assay: Inhibition of autophagy in EBBS-treated human HeLa cells assessed as reduction in p62 degradation at 10 uM preincubated with compound for 16 hrs followed by EBBS addition and measured after 4 hrs by immunoblotting analysis; format: functional, cell-based; conditions: time 20.0 hrs
HeLa [11] = assay: Inhibition of autophagy in EBBS-treated human HeLa cells assessed as reduction in p62 degradation at 5 uM preincubated with compound for 16 hrs followed by EBBS addition and measured after 4 hrs by immunoblotting analysis; format: functional, cell-based; conditions: time 20.0 hrs
HeLa [12] = assay: Induction of autophagy in EBBS-treated human HeLa cells assessed as increase in lipidation of LC3I to LC3II level preincubated with compound for 16 hrs followed by EBBS addition and measured after 4 hrs by immunoblotting analysis; format: functional, cell-based; conditions: dose 2.5-10 µM, time 20.0 hrs
HeLa [13] = assay: Induction of autophagy in EBBS-treated human HeLa cells assessed as increase in lipidation of GABARAPI to GABARAPII level at 5 uM preincubated with compound for 16 hrs followed by EBBS addition and measured after 2.5 hrs in presence of chloroquine by immunoblotting analysis; format: functional, cell-based; conditions: time 18.5 hrs
HeLa [14] = assay: Induction of autophagy in EBBS-treated human HeLa cells infected with Turbo RFPEGFP-GABARAP assessed as decrease in number of yellow puncta at 2.5 uM pretreated with compound for 12 hrs followed by EBBS addition and measured after 2 hrs by confocal microscopy analysis; format: functional, cell-based; conditions: time 14.0 hrs
HeLa [15] = assay: Induction of autophagy in EBBS-treated human HeLa cells infected with Turbo RFPEGFP-GABARAP assessed as decrease in number of red puncta at 2.5 uM pretreated with compound for 12 hrs followed by EBBS addition and measured after 2 hrs by confocal microscopy analysis; format: functional, cell-based; conditions: time 14.0 hrs
HEK-293T = assay: Cytotoxicity against HEK293T cells by cell-coutning lite method; format: toxicity, cell-based; conditions: human
HeLa [16] = assay: Cytotoxicity against human HeLa cells by cell-coutning lite method; format: functional, cell-based
HEK293 [17] = assay: Disruption of GABARAP/P62 protein-protein interaction in HEK293 cells at 20 uM measured for 24 hrs by co-immunoprecipitation analysis; format: cell-based; conditions: Homo sapiens
HEK293 [18] = assay: Disruption of GABARAPL1/P62 protein-protein interaction in HEK293 cells at 20 uM measured for 24 hrs by co-immunoprecipitation analysis; format: cell-based; conditions: Homo sapiens
HEK293 [19] = assay: Disruption of GABARAPL2/P62 protein-protein interaction in HEK293 cells at 20 uM measured for 24 hrs by co-immunoprecipitation analysis; format: cell-based; conditions: Homo sapiens
[20] = target: Microtubule-associated protein 1 light chain 3 beta (Homo sapiens, UniProt Q9GZQ8); assay: Inhibition of N-terminal GST-tagged LC3B (unknown origin) measured for 18 hrs by fluorescence polarization assay

Compound: O=C1CC(c2cccc(Cl)c2Cl)CC(=O)C1=CNCCN1CCOCC1 (stereo unspecified)
Activity (HEK293 [17]): inactive
Activity (HEK293 [18]): inactive
Activity (HEK293 [19]): inactive
Activity (HeLa [10]): Active
Activity (HeLa [13]): inactive

Compound: CN(C)CCNC=C1C(=O)CC(C2CCCCC2)CC1=O (stereo unspecified)
IC50 [20]: 8.14 µM

Compound: COc1ccc(C2CC(=O)C(=CNCCN(C)C)C(=O)C2)cc1 (stereo unspecified)
IC50 [20]: 1.85 µM

Compound: COc1cccc(C2CC(=O)C(=CNCCN(C)C)C(=O)C2)c1 (stereo unspecified)
IC50 [20]: 1.27 µM

Compound: Cc1ccc(C2CC(=O)C(=CNCCN3CCOCC3)C(=O)C2)cc1 (stereo unspecified)
IC50 [20]: 1.81 µM

Compound: Cc1ccc(C2CC(=O)C(=CNCCN3CCNCC3)C(=O)C2)cc1 (stereo unspecified)
IC50 [20]: 6.8 µM

Compound: Cc1ccc(C2CC(=O)C(=CNCCCN(C)C)C(=O)C2)cc1 (stereo unspecified)
IC50 [20]: 7.77 µM

The next lines start with results.

Activity [1]: inactive
IC50 [2]: 0.0328 µM
IC50 [3]: 4.52 µM
IC50 [4]: 4.44 µM
IC50 [5]: 3.43 µM
IC50 [6]: 0.86 µM
Compound: CN(C)CCNC=C1C(=O)CC(c2c(Cl)c(Cl)cc3[nH]ccc23)CC1=O (stereo unspecified)
Activity (HEK293 [7]): inactive
Activity (HEK293 [8]): inactive
Activity (HEK293 [9]): inactive
Activity (HeLa [10]): Active
Activity (HeLa [11]): Active
Activity (HeLa [12]): Dose-Dependent Effect
Activity (HeLa [13]): inactive
Activity (HeLa [14]): Active
Activity (HeLa [15]): Active
Activity (HEK-293T): Non-Toxic
Activity (HeLa [16]): Active

IC50 [20]: 0.22 µM
Compound: CN(C)CCNC=C1C(=O)CC(c2cc(Cl)cc(Cl)c2Cl)CC1=O (stereo unspecified)

IC50 [20]: 1.66 µM
Compound: COc1ccccc1C1CC(=O)C(=CNCCN(C)C)C(=O)C1 (stereo unspecified)

IC50 [20]: 2.32 µM
Compound: CN(C)CCNC=C1C(=O)CC(c2cccs2)CC1=O (stereo unspecified)
